Data set [1] can be described thus: Porcine Pharmacokinetic Study (FIG. 50): sumatriptan in blood serum after delivery from the fluid delivery apparatus. Conditions: 20 mg dose from the fluid delivery apparatus (microneedles), pig; actual profile FIG. 50 compared with nasal, oral and Zecuity (FIG. 49). The format is in vivo, Yorkshire pigs. As for the experimental part:
In reference to FIG. 50, shown is the time versus concentration profile of sumatriptan as administered according to the methods and devices disclosed herein. An ideal profile (identified as “Target PK Profile”) is calculated based on the therapeutic efficiency of the medicament.
Thirty five 80 kg castrated or female Yorkshire pigs were placed under anesthesia and a catheter was inserted into the right or left jugular vein. After the catheter was placed, the pigs were kept under anesthesia and placed on their backs. The ventral region was shaved and covered with a depilatory cream (Nair Sensitive®) for 8 minutes. The cream was removed and the area washed with alcohol. The fluid delivery apparatus was placed against the skin with an adhesive and the microneedles (100 total) were inserted at a post traveling velocity of 6 m/s. A 20 mg dose of sumatriptan from the fluid deliver apparatus was delivered while the pig was under anesthesia. 3 mL blood samples were withdrawn at each time point and spun down to recover the blood serum.

The conditions of data set [2]: FIG. 49, cited from earlier work.
Setting [3] is: nasal administration, compared with actual profile of the fluid delivery apparatus (FIG. 50).
Setting [4] is: subcutaneous administration, compared with the other routes of administration.

Read-outs that look alike come from different tables or passages of the source.

The values below come from patent US11344709B2, “Fluid delivery apparatus having a controller assembly and method of use” (SORRENTO THERAPEUTICS, INC., priority 2016, dated 2022).

On to `CNS(=O)(=O)Cc1ccc2[nH]cc(CCN(C)C)c2c1.O=C(O)CCC(=O)O` [sumatriptan, 1-[3-[2-(dimethylamino)ethyl]-1H-indol-5-yl]-N-methylmethanesulfonamide butanedioic acid], for which the AUC entry is “significantly improved” in data set [1] and “significantly lower” in data set [2] (setting [3]). Besides, the Css entry is reported as “significantly improved” in data set [1], “significantly lower” in data set [2] (setting [3]) and “significantly lower as time progresses” in data set [2] (subcutaneous administration). Also, the Tmax entry was “significantly improved” in data set [1]; “much slower” in data set [2] (oral administration, compared with actual profile of the fluid delivery apparatus (FIG. 50)); “much faster” in data set [2] (setting [4]). Moreover, the Cmax result in data set [2] (setting [4]) is “higher”.
